Residue numbers refer to the chain shown, from its start. Entries after “also recorded” stand apart in the source; their conditions may differ.
Legend:
[1] = system: DU145 (an AR null human prostate cancer cell line); assay: DU145 cell viability (CellTiterGLO); format: cell-based; conditions: 10 μM, full serum containing media
Method: DU145 cells were cultured in full serum containing media with 10 uM of the indicated antiandrogens. CellTiterGLO assay was performed on days 0, 3, and 6 to determine cell viability. RLU=relative light units.

AR F876L = molecular target: T1, AR F876L (Homo sapiens, UniProt P10275, DEL79-80/DUP473-473/F877L); assay: EGFP reporter assay of AR activity, LNCaP-Pb.PSE.EGFP cells, flow cytometry; format: cell-based; conditions: 10 μM, 4 days of treatment
T1 construct: expressed in transfected cells
T1 sequence (P10275 with tags, fused parts or gaps DEL79-80/DUP473-473/F877L): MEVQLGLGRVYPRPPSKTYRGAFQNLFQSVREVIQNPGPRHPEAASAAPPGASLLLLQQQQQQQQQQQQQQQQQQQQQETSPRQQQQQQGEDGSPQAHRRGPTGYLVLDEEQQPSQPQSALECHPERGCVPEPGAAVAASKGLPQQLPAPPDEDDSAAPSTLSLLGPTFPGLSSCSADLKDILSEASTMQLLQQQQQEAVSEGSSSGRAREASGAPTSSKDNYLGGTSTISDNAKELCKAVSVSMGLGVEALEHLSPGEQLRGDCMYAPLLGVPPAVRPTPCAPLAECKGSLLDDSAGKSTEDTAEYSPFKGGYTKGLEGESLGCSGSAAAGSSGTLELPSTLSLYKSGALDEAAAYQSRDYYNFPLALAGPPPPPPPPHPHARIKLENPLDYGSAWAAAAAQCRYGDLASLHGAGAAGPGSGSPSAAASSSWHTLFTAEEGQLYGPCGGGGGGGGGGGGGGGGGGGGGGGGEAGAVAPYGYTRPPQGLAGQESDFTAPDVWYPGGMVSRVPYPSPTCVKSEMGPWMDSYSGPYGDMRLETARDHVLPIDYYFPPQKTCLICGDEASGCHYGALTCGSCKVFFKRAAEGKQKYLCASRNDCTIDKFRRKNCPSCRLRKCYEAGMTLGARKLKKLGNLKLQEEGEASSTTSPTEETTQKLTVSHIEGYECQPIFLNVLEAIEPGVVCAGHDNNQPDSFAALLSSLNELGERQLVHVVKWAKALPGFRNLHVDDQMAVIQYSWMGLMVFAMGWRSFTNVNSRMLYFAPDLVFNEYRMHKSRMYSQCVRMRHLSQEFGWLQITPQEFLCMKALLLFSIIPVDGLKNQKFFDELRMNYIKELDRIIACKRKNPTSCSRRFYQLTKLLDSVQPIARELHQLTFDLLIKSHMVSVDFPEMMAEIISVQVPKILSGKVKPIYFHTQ
From the text: (§1) This clone was used for all flow cytometry assays and for the FACS-based resistance screens.

AR WT = molecular target: T2, AR WT (Homo sapiens, UniProt P10275, DEL79-80/DUP473-473); assay: as above; format: cell-based; conditions: 10 μM, 4 days of treatment
T2 construct: expressed in transfected cells; host or cells: LNCaP-Pb.PSE.EGFP (pantropic retroviral infection, blasticidin selection)
T2 sequence (P10275 with tags, fused parts or gaps DEL79-80/DUP473-473): T1 sequence (P10275 with tags, fused parts or gaps DEL79-80/DUP473-473/F877L) with L876F
From the text: as §1

[2] = system: CWR22PC cells expressing AR F876L; assay: CWR22PC cell viability (CellTiterGLO); format: cell-based, human; conditions: full serum media; days 1, 4, and 7
Method: CellTiterGLO assay was performed on days 1, 4, and 7 to measure cell viability. […] CellTiterGLO assay was performed on days 1, 4, and 7 to measure cell viability.
CellTiterGLO assay was performed on days 1, 4, and 7 to determine cell viability. RLU=relative light units.

[3] = system: CWR22PC cells expressing AR WT; assay: CWR22PC cell viability (CellTiterGLO); format: cell-based, human; conditions: full serum media; days 1, 4, and 7
Method: […]. […] CellTiterGLO assay was performed on days 1, 4, and 7 to measure cell viability. […] CellTiterGLO assay was performed on days 1, 4, and 7 to measure cell viability.
[…]. […] CellTiterGLO assay was performed on days 1, 4, and 7 to determine cell viability. RLU=relative light units.

[4] = system: VCaP cells overexpressing AR F876L; assay: VCaP growth assay (CellTiter-GLO); format: cell-based, human; conditions: full-serum containing media, 10 μM
[5] = system: VCaP cells overexpressing AR WT; assay: VCaP growth assay (CellTiter-GLO); format: cell-based, human; conditions: full-serum containing media, 10 μM
[6] = system: VCaP cells expressing AR WT and AR F876L; assay: Western blot of AR signaling and PARP cleavage in VCaP cells; format: cell-based, human; conditions: 10 μM, 4 days, media containing FBS
Method: Fetal bovine serum (FBS) and charcoal-stripped, dextran-treated fetal bovine serum (CSS) were purchased from Omega Scientific. […] Serial dilutions of all drugs were made using DMSO. Antibodies used for immunoblot assays were b-actin (AC-15, Sigma) PARP (#9543; Cell Signaling Technology), FKBP5 (IHC-00289, Bethyl), b-tubulin (D-10) and androgen receptor (N-20) (both from Santa Cruz Biotechnology). Protein lysates were prepared in M-PER protein extraction reagent (Pierce) or 1% SDS buffer. The chromatin immunoprecipitation assay was conducted using a kit (Upstate) with an antibody for androgen receptor (PG-21, Upstate). Nontarget and mouse AR siRNA pools were from the ON-TARGETplus collection (Dharmacon).

SMILES: CNC(=O)c1ccc(N2C(=S)N(c3ccc(C#N)c(C(F)(F)F)c3)C(=O)C23CCCC(C)(C)C3)cc1F (racemic) [(±)-DR103, 4-(3-(4-cyano-3-(trifluoromethyl)phenyl)-7,7-dimethyl-4-oxo-2-thioxo-1,3-diazaspiro[4.5]decan-1-yl)-2-fluoro-N-methylbenzamide]
- Proliferation of DU145 cells ([1]; listed as (+)-DR103): did not impact the proliferation
- Proliferation of DU145 cells ([1]; listed as DR103): no significant growth inhibition
- Effect on transcriptional activity of AR F876L in EGFP reporter assay (agonism or antagonism) (AR F876L): effectively antagonized; also recorded: potently inhibited
- Effect on transcriptional activity of AR WT in EGFP reporter assay (agonism or antagonism) (AR WT): effectively antagonized
- Growth/viability of CWR22PC cells expressing AR F876L [2]: growth inhibition
- Growth/viability of CWR22PC cells, AR WT [3]: growth inhibition
- Growth of VCaP cells overexpressing AR F876L [4]: inhibited the growth
- Growth of VCaP cells overexpressing AR F876L ([4]; listed as (+)-DR103): effectively inhibits the growth of both models
- Growth of VCaP cells, AR WT [5]: inhibited the growth
- Growth of VCaP cells, AR WT ([5]; listed as (+)-DR103): effectively inhibits the growth of both models
- Endogenous AR signaling (Western blot) [6]: inhibited endogenous AR signaling
- PARP cleavage (Western blot) [6]: induced PARP cleavage
- Endogenous AR signaling (Western blot) ([6]; listed as DR103): efficiently inhibits AR signaling
- PARP cleavage (Western blot) ([6]; listed as DR103): induces PARP cleavage

Reference: US10206911B2, “Androgen receptor variants and methods for making and using” (MEMORIAL SLOAN-KETTERING CANCER CENTER, priority 2012, dated 2019)
